pEC50: −log10 of the molar value.
Biological target: human APJ receptor (Homo sapiens (Human), UniProt P35414)
Assay: [35S]GTPγS binding assay on membranes from CHO cells stably expressing human APJ receptor
Type: biochemical
Settings: membranes of CHO cells stably expressing human APJ receptor, read-out: Activity hAPJ SPA EC50 IP
How it was run: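 Agonist EC50 values come from non-linear regression of mean data from several independent runs. Membranes of CHO cells stably expressing human APJ were incubated 90 min at room temperature with [35S]GTPγS in buffer with optimized GDP, MgCl2 and NaCl, then read on a microplate imager.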

Sequence of human APJ receptor (P35414 whole entry): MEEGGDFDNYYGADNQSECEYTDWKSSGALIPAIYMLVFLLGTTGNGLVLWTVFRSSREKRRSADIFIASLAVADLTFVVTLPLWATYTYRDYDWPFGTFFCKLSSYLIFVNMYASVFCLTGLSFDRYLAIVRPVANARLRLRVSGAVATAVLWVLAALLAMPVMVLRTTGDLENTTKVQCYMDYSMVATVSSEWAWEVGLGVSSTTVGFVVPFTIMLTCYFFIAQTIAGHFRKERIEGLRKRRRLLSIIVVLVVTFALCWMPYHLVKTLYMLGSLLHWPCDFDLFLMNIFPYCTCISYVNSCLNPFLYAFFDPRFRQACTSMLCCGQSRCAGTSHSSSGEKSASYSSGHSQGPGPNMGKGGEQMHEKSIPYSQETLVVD

Compound	pEC50
COCCn1c(NS(=O)(=O)[C@@H](C)[C@@H](OC(C)C)c2ncc(Cl)cn2)nnc1-c1ccccn1 [Example 23.0, (1S,2S)-1-(5-chloro-2-pyrimidinyl)-N-(4-(2-methoxyethyl)-5-(2-pyridinyl)-4H-1,2,4-triazol-3-yl)-1-(2-propanyloxy)-2-propanesulfonamide]	7.82
COCC(COC)n1c(NS(=O)(=O)[C@@H](C)[C@@H](OC(C)C)c2ncc(Cl)cn2)nnc1-c1ccccn1 [Example 113.0]	8.74
COc1cccc(-c2nnc(NS(=O)(=O)[C@@H](C)[C@H](OC)c3ncc(Cl)cn3)n2[C@@H]2CC[C@H]2OC)n1 (single isomer, unassigned) [Example 162.0, (1R,2S)-1-(5-Chloropyrimidin-2-yl)-1-methoxy-N-(4-((1R,2R)-2-methoxycyclobutyl)-5-(6-methoxypyridin-2-yl)-4H-1,2,4-triazol-3-yl)propane-2-sulfonamide or (1R,2S)-1-(5-chloropyrimidin-2-yl)-1-methoxy-N-(4-((1S,2S)-2-methoxycyclobutyl)-5-(6-methoxypyridin-2-yl)-4H-1,2,4-triazol-3-yl)propane-2-sulfonamide]	8.55
CC[C@H]([C@@H]1CCCCO1)n1c(NS(=O)(=O)[C@@H](C)[C@H](OC)c2ncc(C)cn2)nnc1-c1cccc(OC)n1 (single isomer, unassigned) [Example 332.0]	9.92
COc1cccc(-c2nnc(NS(=O)(=O)[C@@H](C)[C@H](OC)c3ncc(Cl)cn3)n2[C@@H]2CCC23CCC3)n1 (single isomer, unassigned) [Example 92.0]	8.92
COc1cccc(-c2nnc(NS(=O)(=O)[C@@H](C)[C@H](C)c3ncc(Cl)cn3)n2Cc2cnoc2)n1 [Example 187.0, (2S,3R)-3-(5-chloropyrimidin-2-yl)-N-(4-(isoxazol-4-ylmethyl)-5-(6-methoxypyridin-2-yl)-4H-1,2,4-triazol-3-yl)butane-2-sulfonamide]	6.19
COCC(COC)n1c(NS(=O)(=O)[C@@H](C)[C@H](C)c2ncc(C)cn2)nnc1-c1cccc(OC)n1 [Example 98.0]	8.21
CC[C@H]([C@@H]1CCCCO1)n1c(NS(=O)(=O)[C@@H](C)[C@H](OC)c2ncc(Cl)cn2)nnc1-c1cccc(OC)n1 (single isomer, unassigned) [Example 326.0]	9.85
COc1cccc(-c2nnc(NS(=O)(=O)[C@@H](C)[C@H](OC)c3ncc(Cl)cn3)n2[C@@H](C)c2ccno2)n1 (single isomer, unassigned) [Example 213.0, (1R,2S)-1-(5-chloro-2-pyrimidinyl)-1-methoxy-N-(5-(6-methoxy-2-pyridinyl)-4-((1R)-1-(1,2-oxazol-5-yl)ethyl)-4H-1,2,4-triazol-3-yl)-2-propanesulfonamide or (1R,2S)-1-(5-chloro-2-pyrimidinyl)-1-methoxy-N-(5-(6-methoxy-2-pyridinyl)-4-((1S)-1-(1,2-oxazol-5-yl)ethyl)-4H-1,2,4-triazol-3-yl)-2-propanesulfonamide]	9.18
COC[C@@H](C)n1c(NS(=O)(=O)[C@@H](C)[C@H](C)c2ncc(Cl)cn2)nnc1-c1cccnc1 (single isomer, unassigned) [Example 52.0]	7.80
COc1cnc([C@@H](C)[C@H](C)S(=O)(=O)Nc2nnc(-c3cccc(OC)n3)n2C2CC2)nc1 [Example 119.0]	7.55
(1R,2S)-1-(5-chloropyrimidin-2-yl)-1-methoxy-N-(5-(6-methoxypyridin-2-yl)-4-(((S)-oxetan-2-yl)methyl)-4H-1,2,4-triazol-3-yl)propane-2-sulfonamide or (1R,2S)-1-(5-chloropyrimidin-2-yl)-1-methoxy-N-(5-(6-methoxypyridin-2-yl)-4-(((R)-oxetan-2-yl)methyl)-4H-1,2,4-triazol-3-yl)propane-2-sulfonamide [Example 141.0]	7.80
COc1cccc(-c2nnc(NS(=O)(=O)[C@@H](C)[C@H](OC)c3ncc(Cl)cn3)n2[C@@H](C)c2c(C)noc2C)n1 (racemic) [Example 309.0, (1R,2S)-1-(5-chloropyrimidin-2-yl)-N-(4-((R)-1-(3,5-dimethylisoxazol-4-yl)ethyl)-5-(6-methoxypyridin-2-yl)-4H-1,2,4-triazol-3-yl)-1-methoxypropane-2-sulfonamide or (1R,2S)-1-(5-chloropyrimidin-2-yl)-N-(4-((S)-1-(3,5-dimethylisoxazol-4-yl)ethyl)-5-(6-methoxypyridin-2-yl)-4H-1,2,4-triazol-3-yl)-1-methoxypropane-2-sulfonamide]	8.04
CC[C@H]([C@@H]1CCCCO1)n1c(NS(=O)(=O)[C@@H](C)[C@H](OC)c2ncc(C)cn2)nnc1-c1cncc(C)c1 (single isomer, unassigned) [Example 333.0]	8.11
COc1cccc(-c2nnc(NS(=O)(=O)[C@@H](C)[C@H](OC)c3ncc(Cl)cn3)n2[C@H](C)c2cnn(C)c2)n1 (single isomer, unassigned) [Example 338.0, (1R,2S)-1-(5-chloropyrimidin-2-yl)-1-methoxy-N-(5-(6-methoxypyridin-2-yl)-4-((R)-1-(1-methyl-1H-pyrazol-4-yl)ethyl)-4H-1,2,4-triazol-3-yl)propane-2-sulfonamide or (1R,2S)-1-(5-chloropyrimidin-2-yl)-1-methoxy-N-(5-(6-methoxypyridin-2-yl)-4-((S)-1-(1-methyl-1H-pyrazol-4-yl)ethyl)-4H-1,2,4-triazol-3-yl)propane-2-sulfonamide]	9.25
CO[C@H](c1ncc(Cl)cn1)[C@H](C)S(=O)(=O)Nc1nnc(-c2cccnc2)n1C(C)C [Example 134.0, (1R,2S)-1-(5-chloro-2-pyrimidinyl)-1-methoxy-N-(4-(2-propanyl)-5-(3-pyridinyl)-4H-1,2,4-triazol-3-yl)-2-propanesulfonamide]	6.77
COc1cccc(-c2nnc(NS(=O)(=O)[C@@H](C)[C@@H](OC(C)C)c3ncc(Cl)cn3)n2C2CC2)n1 [Example 70.0]	9.22
COc1cccc(-c2nnc(NS(=O)(=O)[C@@H](C)[C@H](OC)c3ncc(Cl)cn3)n2CCOC(F)F)n1 [Example 43.0]	8.43
COc1cccc(-c2nnc(NS(=O)(=O)[C@@H](C)[C@H](C)c3ncc(C)cn3)n2Cc2ccon2)n1 [Example 291.0, (2S,3R)-N-(4-(isoxazol-3-ylmethyl)-5-(6-methoxypyridin-2-yl)-4H-1,2,4-triazol-3-yl)-3-(5-methylpyrimidin-2-yl)butane-2-sulfonamide]	7.46
COCC1(n2c(NS(=O)(=O)[C@@H](C)[C@@H](OC(C)C)c3ncc(C)cn3)nnc2-c2cccnc2)CC1 [Example 62.0]	7.57
COCC1(n2c(NS(=O)(=O)[C@@H](C)[C@H](C)c3ncc(Cl)cn3)nnc2-c2cccnc2)CC1 [Example 68.0]	8.55
CCC(CC)n1c(NS(=O)(=O)[C@@H](C)[C@H](OC)c2ncc(Cl)cn2)nnc1-c1cccnc1 [Example 111.0]	7.57
COc1cccc(-c2nnc(NS(=O)(=O)[C@@H](C)[C@H](OC)c3ncc(Cl)cn3)n2C[C@@H]2CCC[C@H](C)O2)n1 (single isomer, unassigned) [Example 306.0]	7.46
Cc1cnc([C@H](OC(C)C)[C@H](C)S(=O)(=O)Nc2nnc(-c3cncc(C)c3)n2C2(C)CC2)nc1 [Example 58.0]	7.38
COc1cccc(-c2nnc(NS(=O)(=O)[C@@H](C)[C@H](C)c3ncc(Cl)cn3)n2[C@H](C)c2csnn2)n1 (single isomer, unassigned) [Example 296.0, (2S,3R)-N-(4-((R)-1-(1,2,3-thiadiazol-4-yl)ethyl)-5-(6-methoxypyridin-2-yl)-4H-1,2,4-triazol-3-yl)-3-(5-chloropyrimidin-2-yl)butane-2-sulfonamide or (2S,3R)-N-(4-((S)-1-(1,2,3-thiadiazol-4-yl)ethyl)-5-(6-methoxypyridin-2-yl)-4H-1,2,4-triazol-3-yl)-3-(5-chloropyrimidin-2-yl)butane-2-sulfonamide]	8.74
CC[C@@H](c1c(C)noc1C)n1c(NS(=O)(=O)[C@@H](C)[C@H](OC)c2ncc(Cl)cn2)nnc1-c1cccc(OC)n1 (single isomer, unassigned) [Example 219.0, (1R,2S)-1-(5-chloro-2-pyrimidinyl)-N-(4-((1R)-1-(3,5-dimethyl-1,2-oxazol-4-yl)propyl)-5-(6-methoxy-2-pyridinyl)-4H-1,2,4-triazol-3-yl)-1-methoxy-2-propanesulfonamide or (1R,2S)-1-(5-chloro-2-pyrimidinyl)-N-(4-((1S)-1-(3,5-dimethyl-1,2-oxazol-4-yl)propyl)-5-(6-methoxy-2-pyridinyl)-4H-1,2,4-triazol-3-yl)-1-methoxy-2-propanesulfonamide]	8.74
COc1cccc(-c2nnc(NS(=O)(=O)[C@@H](C)[C@H](OC)c3ncc(Cl)cn3)n2[C@@H]2CCC23CCC3)n1 (stereo in doubt) [Example 56.0]	8.72
CC[C@@H](c1c(C)noc1C)n1c(NS(=O)(=O)[C@@H](C)[C@H](OC)c2cnc(C)cn2)nnc1-c1cccc(OC)n1 (single isomer, unassigned) [Example 222.0, (1R,2S)-N-(4-((1S)-1-(3,5-dimethyl-1,2-oxazol-4-yl)propyl)-5-(6-methoxy-2-pyridinyl)-4H-1,2,4-triazol-3-yl)-1-methoxy-1-(5-methyl-2-pyrazinyl)-2-propanesulfonamide or (1R,2S)-N-(4-((1R)-1-(3,5-dimethyl-1,2-oxazol-4-yl)propyl)-5-(6-methoxy-2-pyridinyl)-4H-1,2,4-triazol-3-yl)-1-methoxy-1-(5-methyl-2-pyrazinyl)-2-propanesulfonamide]	7.24
CCc1noc(C)c1Cn1c(NS(=O)(=O)[C@@H](C)[C@H](OC)c2ncc(Cl)cn2)nnc1-c1cccc(OC)n1 [Example 192.0, (1R,2S)-1-(5-chloro-2-pyrimidinyl)-N-(4-((3-ethyl-5-methyl-1,2-oxazol-4-yl)methyl)-5-(6-methoxy-2-pyridinyl)-4H-1,2,4-triazol-3-yl)-1-methoxy-2-propanesulfonamide]	6.59

Reference: patent US10689367B2, “Triazole pyridyl compounds as agonists of the APJ receptor” (AMGEN INC., priority 2016, dated 2020)
